Paper PMC6547440, “The HRP3 PWWP domain recognizes the minor groove of double-stranded DNA and recruits HRP3 to chromatin” (Nucleic Acids Research, 2019)
One block for each molecule: values may come before it. No end group written: not given here. Me3 = trimethyl-lysine (Lys side chain trimethylated); {FAM} = FAM (fluorescein) label on dsDNA for MST

Key:
HRP3 PWWP aromatic cage = assay: Crystal structure of apo-form HRP3 PWWP (8–94), MES in aromatic cage; assay type: binding, human; settings: 0.95 Å
Method: Crystallization was conducted using the sitting drop vapour diffusion method by mixing an equal volume of protein and well solution. Apo-form HRP3 PWWP (8–94) was crystallized with crystallization buffer containing 0.2 M ammonium sulfate, 0.1 M MES monohydrate, pH 6.5 and 30% w/v polyethylene glycol monomethyl ether 5000. The crystallization buffer containing 12% 2,3-butanediol was used as the cryoprotectant.
Datasets for all crystals were collected at the beamlines of the Shanghai Synchrotron Radiation Facility (SSRF). The datasets were processed using HKL2000 ([33]), and the structures were solved by molecular replacement using the programme PHENIX ([34]) with the HDGF2 PWWP domain (PDB number: 3EAE) as the search model. The initial model was rebuilt in COOT ([35]) and further refined by PHENIX.

HRP3 PWWP WT = biological target: T1, HRP3 PWWP WT (Homo sapiens, UniProt Q9Y3E1); assay: NMR titration of H3K36 peptides with wild-type HRP3 PWWP; assay type: binding; settings: 15N-labelled HRP3 PWWP (1–110) WT, H3 residues 29–41, 20 mM PBS pH 6.9, 20 mM NaCl, 2 mM DTT, 298 K
T1 construct: using ^15N-labelled HRP3 PWWP (residues 1–110) dissolved in buffer; 6xHis-SUMO (cleaved yes); made in house; host or cells: Escherichia coli Rosetta (DE3)
Method: (§1) All 2D ^1H-^15N HSQC NMR spectra were collected on the Bruker Avance III HD 600 MHz and 800 MHz spectrometers at 298 K. The NMR data were processed by NMRPipe ([39]) and analysed by KUJIRA ([40]) running with NMRview ([41]) softwares. Chemical shift perturbation experiments were carried out using ^15N-labelled HRP3 PWWP (residues 1–110) dissolved in buffer containing 20 mM PBS at pH 6.9, 20 mM NaCl and 2 mM DTT. A series of 2D ^1H-^15N HSQC spectra were recorded at HRP3 PWWP:H3K36me3/2/1/0 (residues 29–41) molar ratios of 1:0, 1:0.5, 1:1.5, 1:4, 1:6, 1:10, 1:15 and 1:20, respectively. The combined chemical shift perturbation was calculated using the following equation: Δδ = [(Δδ^1H)^2 + (Δδ^15N/5)^2]^1/2. Dissociation constants were calculated by fitting the data to a single-site ligand-binding model (SigmaPlot).

HRP3 PWWP Y22A = biological target: T2, HRP3 PWWP Y22A (Homo sapiens, UniProt Q9Y3E1, Y22A); assay: NMR titration of H3K36me3 peptide with HRP3 PWWP Y22A; assay type: binding; settings: H3 residues 29–41, 20 mM PBS pH 6.9, 298 K
T2 construct: using ^15N-labelled HRP3 PWWP (residues 1–110) dissolved in buffer; 6xHis-SUMO (cleaved yes); made in house; host or cells: Escherichia coli Rosetta (DE3)
Method: as §1

HRP3 PWWP F48A = biological target: T3, HRP3 PWWP F48A (Homo sapiens, UniProt Q9Y3E1, F48A); assay: NMR titration of H3K36me3 peptide with HRP3 PWWP F48A; assay type: binding; settings: H3 residues 29–41, 20 mM PBS pH 6.9, 298 K
T3 construct: using ^15N-labelled HRP3 PWWP (residues 1–110) dissolved in buffer; 6xHis-SUMO (cleaved yes); made in house; host or cells: Escherichia coli Rosetta (DE3)
Method: as §1

HRP3 PWWP E53A = biological target: T4, HRP3 PWWP E53A (Homo sapiens, UniProt Q9Y3E1, E53A); assay: NMR titration of H3K36me3 peptide with HRP3 PWWP E53A; assay type: binding; settings: H3 residues 29–41, 20 mM PBS pH 6.9, 298 K
T4 construct: using ^15N-labelled HRP3 PWWP (residues 1–110) dissolved in buffer; 6xHis-SUMO (cleaved yes); made in house; host or cells: Escherichia coli Rosetta (DE3)
Method: as §1

chromatin of HepG2 cells = assay: ChIP-Seq of GFP-HRP3 variants in HepG2 cells; assay type: cell-based, human
Method: (§2) HepG2 (ATCC HB-8065) and HEK293T human embryonic kidney cells (ATCC #CRL-11268) were cultured in Dulbecco’s modified Eagle’s medium supplemented with 10% FBS. Stable overexpression of wild-type or mutant HRP3 in HepG2 cells was performed using FUGW lentiviral constructs expressing wild-type or mutant HRP3. Lentiviral vector infections ([47]) and plasmid transfections ([48]) were performed as previously described. Overexpression efficiency was determined by western blot.
For chromatin immunoprecipitation, HepG2 cells were cross-linked with 1% formaldehyde at 37°C for 10 min and quenched with 0.125 M glycine for 5 min at room temperature. ChIP was performed using a ChIP assay kit (Millipore) according to the manufacturer’s protocol. Antibodies used for ChIP were GFP (gta-20, Chromo-Tek) and H3K36me3 (ab9050, abcam).
ChIP-Seq data were aligned to human genome hg19 using Bowtie 1.0 allowing one mismatch. Two biological replicates were performed and combined for the analysis. Analysis was performed using the Galaxy ([49]) and Cistrome ([50]) Platform and via custom R scripts for Bioconductor ([51]). Peak calling was performed using MACS2. Promoter definitions were downloaded from the UCSC browser ([52]). DNase I hypersensitivity and MNase-Seq data from ENCODE (GSM816662, GSM920557) ([53]) were used.

HepG2 cells = assay: Fluorescence microscopy of GFP-HRP3 in HepG2 cells; assay type: cell-based, human; settings: GFP fusion in HepG2 cells
Method: as §2
The cells were first fixed with 4% paraformaldehyde in PBS buffer for 30 min at room temperature, and then washed with PBS buffer twice. The cells were permeabilized with 0.5% Triton X-100 in PBS buffer for 10 min followed with PBS washing twice. Then, the cells were incubated with1 μg/ml 4′,6-diamidino-2-phenylindole (DAPI) (C0060, Solarbio) in PBS for 5 min. After washing with PBS buffer twice, the cells were ready for microscopic observation. 3D structural illumination microscopy was performed using N-SIM Super-resolution Microscope System (Nikon) with an objective lens CFI Plan (Apochromat Lambda 40 ×, 0.95 numerical aperture; Nikon).

HRP3 PWWP [1] = assay: MST binding of 5′-FAM-labelled dsDNAs to HRP3 PWWP; set-up: species or system human; settings: 16-mer-TA versus 16-mer-random and 16-mer-GC
Method: All Mircoscale thermophoresis (MST) experiments were performed on a Monolith NT115 machine with 20% MST power and 100% LED power. All protein and DNA samples were dissolved in solution containing 50 mM KCl, 10 mM sodium cacodylate at pH 6.5 and 2 mM DTT. The MST samples were prepared by mixing HRP3(1-110) at concentrations ranging from 3 nM to 100 μM into a solution containing 200 nM 5′-FAM-labelled dsDNA. Experiments were performed using Monolith NT115 Standard Treated Capillaries, MO-K002. Dissociation constants were fitted with the MO Affinity Analysis software.
The DNA sequences used in this assay are as follows: 5′-FAM-16TA: 5′-[…]-3′; 5′-FAM-16GC: 5′-[…]-3′; and 5′-FAM-16random: 5′-[…]-3′.

HRP3 PWWP [2] = assay: ITC of HRP3 PWWP with dsDNAs; assay type: binding, human; settings: 20°C, HRP3 PWWP (1–110), 10 mM PBS pH 7.0, 50 mM NaCl, 2 mM β-mercaptoethanol
Method: Isothermal titration calorimetry-based measurements were carried out at 20°C with a MicroCal iTC200 instrument. HRP3 PWWP (1–110) and various dsDNAs were dialysed overnight at 4°C in titration buffer containing 10 mM phosphate-buffered saline (PBS) at pH 7.0, 50 mM NaCl and 2 mM β-mercaptoethanol. Calorimetric titration data were fitted with the Origin software under the algorithm of one binding-site model.

HRP3 PWWP [3] = assay: DNA geometry analysis of the PWWP/DNA complex structures; set-up: species or system human
Method: DNA geometry was analysed with the 3DNA ([42]) and Curves+ ([43]) programs. Electrostatic potentials were calculated using the DelPhi program ([44]). The minor groove width was measured according to the method described ([45]). In detail, the distances between the ith (i indicates the number of the base from one chain) phosphate atom from one chain and the (i + 4)th atom from the paired chain were used to describe the minor groove width at the ith base. Electrostatic potentials were calculated at the midpoints between the above phosphate atom pairs used to calculate the minor groove widths.

[4] = biological target: T5, HRP3 PWWP domain (residues 1–110) (human, UniProt Q9Y3E1 1-110); assay: NMR titration; 2D 1H-15N HSQC chemical shift perturbation of 15N-labelled HRP3 PWWP (1–110); H3 peptide (29–41) added to molar ratios 1:0 to 1:20; 298 K; 20 mM PBS pH 6.9, 20 mM NaCl, 2 mM DTT; single-site ligand-binding fit; settings: both partners purified
T5 construct: HDGF-related protein 3 (HRP3, HDGFL3), human, residues 1-110 holding the PWWP domain; His-SUMO tag removed by ULP1 protease; also called HRP3 PWWP (1–110); HRP3(1-110); source: E. coli Rosetta (DE3), purified (nickel column, gel filtration), 15N-labelled

[5] = biological target: T6, HRP3 PWWP domain (residues 1–110) Y22A (human, UniProt Q9Y3E1 1-110, Y22A); assay: as above; settings: both partners purified
T6 construct: HDGF-related protein 3 (HRP3, HDGFL3), human, residues 1-110 holding the PWWP domain, aromatic cage mutant; they are not repeated for the mutants; source: E. coli Rosetta (DE3), purified (nickel column, gel filtration), 15N-labelled

[6] = biological target: T7, HRP3 PWWP domain (residues 1–110) F48A (human, UniProt Q9Y3E1 1-110, F48A); assay: as above; settings: both partners purified
T7 construct: HDGF-related protein 3 (HRP3, HDGFL3), human, residues 1-110 holding the PWWP domain, aromatic cage mutant; they are not repeated for the mutants; source: E. coli Rosetta (DE3), purified (nickel column, gel filtration), 15N-labelled

[7] = biological target: T8, HRP3 PWWP domain (residues 1–110) E53A (human, UniProt Q9Y3E1 1-110, E53A); assay: as above; settings: both partners purified
T8 construct: HDGF-related protein 3 (HRP3, HDGFL3), human, residues 1-110 holding the PWWP domain; they are not repeated for the mutants; source: E. coli Rosetta (DE3), purified (nickel column, gel filtration), 15N-labelled

HRP3 PWWP (1-110) WT = HRP3 PWWP (1-110) WT (UniProt Q9Y3E1 1-110); assay: MST; MST: 50 mM KCl, 10 mM Na cacodylate pH 6.5, 2 mM DTT, 200 nM FAM-dsDNA; ITC: 10 mM PBS pH 7.0, 50 mM NaCl, 2 mM b-ME, 20 C; nucleosome EMSA: 20 mM Tris pH 7.5; settings: protein: recombinant; tags: none (His-SUMO removed); label: 5'-FAM (MST); blunt; self-complementary
[8] = biological target: HRP3 PWWP K18A/N76A/R78A (KNR-A) (UniProt Q9Y3E1 1-110, K18A;N76A;R78A); assay: as above; settings: protein: recombinant; tags: none (His-SUMO removed); label: 5'-FAM (MST); blunt; self-complementary
HRP3 PWWP N76A = HRP3 PWWP N76A (UniProt Q9Y3E1 1-110, N76A); assay: MST; affinity unchanged vs WT; MST: 50 mM KCl, 10 mM Na cacodylate pH 6.5, 2 mM DTT, 200 nM FAM-dsDNA; ITC: 10 mM PBS pH 7.0, 50 mM NaCl, 2 mM b-ME, 20 C; nucleosome EMSA: 20 mM Tris pH 7.5; settings: protein: recombinant; tags: none (His-SUMO removed); label: 5'-FAM (MST); blunt; self-complementary
HRP3 PWWP N76A, sequence (Q9Y3E1 1-110 N76A): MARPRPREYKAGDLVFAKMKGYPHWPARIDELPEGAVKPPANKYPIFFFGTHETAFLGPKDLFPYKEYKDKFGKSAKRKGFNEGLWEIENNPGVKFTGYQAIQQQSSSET

T3 sequence (Q9Y3E1 1-110 F48A limits assumed): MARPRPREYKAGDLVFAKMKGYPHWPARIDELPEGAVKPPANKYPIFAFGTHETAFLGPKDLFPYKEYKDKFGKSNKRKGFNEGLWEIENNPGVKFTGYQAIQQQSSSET
T7 sequence (Q9Y3E1 1-110 F48A): as the sequence (Q9Y3E1 1-110 F48A limits assumed) above
HRP3 PWWP K18A/N76A/R78A (KNR-A), sequence (Q9Y3E1 1-110 K18A/N76A/R78A): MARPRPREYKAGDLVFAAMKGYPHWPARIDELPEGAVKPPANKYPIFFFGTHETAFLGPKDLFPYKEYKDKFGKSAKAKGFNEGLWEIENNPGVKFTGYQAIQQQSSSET
T2 sequence (Q9Y3E1 1-110 Y22A): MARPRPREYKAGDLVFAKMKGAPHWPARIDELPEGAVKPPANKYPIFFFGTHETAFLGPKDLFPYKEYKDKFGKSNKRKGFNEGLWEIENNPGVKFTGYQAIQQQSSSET
T6 sequence (Q9Y3E1 1-110 Y22A): as above
T5 sequence (Q9Y3E1 1-110): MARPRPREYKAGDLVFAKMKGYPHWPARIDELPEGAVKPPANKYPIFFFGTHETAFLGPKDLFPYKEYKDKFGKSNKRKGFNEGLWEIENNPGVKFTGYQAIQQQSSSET
HRP3 PWWP (1-110) WT, sequence (Q9Y3E1 1-110): as above
T1 sequence (Q9Y3E1 1-110): as above
T8 sequence (Q9Y3E1 1-110 E53A): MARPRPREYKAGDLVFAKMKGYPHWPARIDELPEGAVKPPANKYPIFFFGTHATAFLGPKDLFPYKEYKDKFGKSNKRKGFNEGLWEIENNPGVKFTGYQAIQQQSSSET
T4 sequence (Q9Y3E1 1-110 E53A limits assumed): as the sequence (Q9Y3E1 1-110 E53A) above

Molecule: O=S(=O)(O)CCN1CCOCC1 [MES]
position of bound molecule (HRP3 PWWP aromatic cage): positioned in the middle of the aromatic cage

Kd (HRP3 PWWP WT): 1.4 ± 0.6 mM
Kd (HRP3 PWWP Y22A): 21 ± 9 mM
Kd (HRP3 PWWP F48A): 9.4 ± 2.1 mM
Kd (HRP3 PWWP E53A): 8 ± 1.9 mM
Molecule: CC(C)[C@H](NC(=O)CNC(=O)CNC(=O)[C@@H](NC(=O)[C@H](C)NC(=O)[C@@H]1CCCN1C(=O)[C@H](C)N)[C@@H](C)O)C(=O)N[C@@H](CCCC[N+](C)(C)C)C(=O)N[C@@H](CCCCN)C(=O)N1CCC[C@H]1C(=O)N[C@@H](Cc1c[nH]cn1)C(=O)N[C@@H](CCCNC(=N)N)C(=O)N[C@@H](Cc1ccc(O)cc1)C(=O)O [H3K36me3]

Molecule: HRP3: wild-type human HRP3 as GFP fusion protein in HepG2 cells
DNase I hypersensitivity and nucleosome density of HRP3-enriched regions (chromatin of HepG2 cells; ChIP-Seq versus ENCODE DNase I / MNase-Seq data): increased DNase I hypersensitivity and reduced nucleosome density
chromatin binding / recruitment by ChIP-Seq (chromatin of HepG2 cells; ChIP-Seq with GFP antibody, HepG2, two biological replicates combined): enriched at promoters and gene bodies
specific DNA-binding motif enrichment (chromatin of HepG2 cells; ChIP-Seq, HepG2): could not detect the enrichment of a specific DNA-binding motif
subcellular localisation (HepG2 cells): enriched in the nucleus

Molecule: 5′-TATATATATATATATA-3′ (DNA, 5' {FAM}, backbone not given here; double-stranded DNA, FAM label in MST assay) [16-mer-TA, 16-bp TA-rich dsDNA]
fold higher affinity (HRP3 PWWP [1]): 2–3 fold
TA-rich preference by ITC (HRP3 PWWP [2]): TA-rich preference was further verified by ITC-based measurements
average helical twist (HRP3 PWWP [3]; 3DNA): 37.1 °
average propeller twist (HRP3 PWWP [3]; 3DNA): −11.2 °
bending angle towards the minor groove per 6 bps (HRP3 PWWP [3]; Curve+ software): 2.9 °
width of the minor groove, PWWP-binding region (HRP3 PWWP [3]; crystal structure of complex): 10.7 Å
width of the minor groove, PWWP-free region (HRP3 PWWP [3]; crystal structure of complex): 10.8 Å

Kd [4]: 1.3 mM
fold loss of binding affinity against wild type [5]: 15 fold
fold loss of binding affinity against wild type [6]: 6.7 fold
fold decrease of binding against wild type [7]: 5.7 fold
B1: H3K36me3 histone peptide (H3 residues 29–41) (peptide, UniProt P68431 30-42, looked up)
peptide: APATGGVK(Me3)KPHRY
notes: histone H3, residues 29-41; also called H3K36me3 peptide; H3K36me3-containing peptide

B2: 16-mer-TA (dsDNA)
DNA 1: TATATATATATATATA
DNA 2: TATATATATATATATA
Kd (HRP3 PWWP (1-110) WT): 0.0013 mM
binding signal [8]: 58 fold loss vs WT
binding result (HRP3 PWWP N76A): binds
